Our source for the remaining activity values is patent publication US10654802B2, “Indoline derivatives and method for using and producing the same” (ARIZONA BOARD OF REGENTS ON BEHALF OF THE UNIVERSITY OF …, priority 2016, dated 2020).

Structures are written as SMILES.

The first experiment has as its target T1, Nox4 (Homo sapiens, UniProt Q9NPH5).
T1 construct: expressed in transfected cells
T1 sequence (Q9NPH5 1-578): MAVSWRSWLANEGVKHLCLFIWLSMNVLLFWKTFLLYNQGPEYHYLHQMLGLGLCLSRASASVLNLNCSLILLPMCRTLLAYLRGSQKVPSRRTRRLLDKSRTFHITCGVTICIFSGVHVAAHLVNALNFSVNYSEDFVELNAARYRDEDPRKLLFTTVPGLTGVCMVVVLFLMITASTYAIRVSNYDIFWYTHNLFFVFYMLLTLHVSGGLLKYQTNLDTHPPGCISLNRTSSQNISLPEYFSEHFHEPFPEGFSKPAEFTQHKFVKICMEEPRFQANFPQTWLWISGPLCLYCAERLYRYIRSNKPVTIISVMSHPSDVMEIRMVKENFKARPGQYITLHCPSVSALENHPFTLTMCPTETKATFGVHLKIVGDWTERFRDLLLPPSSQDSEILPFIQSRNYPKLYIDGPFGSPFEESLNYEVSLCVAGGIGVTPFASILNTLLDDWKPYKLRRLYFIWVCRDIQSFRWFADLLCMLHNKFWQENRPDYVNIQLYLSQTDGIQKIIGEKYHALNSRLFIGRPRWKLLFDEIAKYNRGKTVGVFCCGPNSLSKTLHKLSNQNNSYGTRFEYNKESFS
T1 sequence (P13498 1-195 partner): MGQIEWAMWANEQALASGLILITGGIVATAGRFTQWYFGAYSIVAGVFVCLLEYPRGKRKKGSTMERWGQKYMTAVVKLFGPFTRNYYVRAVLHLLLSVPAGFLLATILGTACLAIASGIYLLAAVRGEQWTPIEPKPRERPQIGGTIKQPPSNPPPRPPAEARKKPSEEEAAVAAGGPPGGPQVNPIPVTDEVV
Put plainly: Inhibition of Nox4-dependent H2O2 production in HEK/Nox4 cells, Amplex Red assay. The following applies: 1 μM final concentration, 1 h, HEK/Nox4 cells; DMSO vehicle = 1.000; n = 3-10; read-out: H2O2 production relative to vehicle control, Mean. The format is cell-based. Here is the method: A high-throughput screening (HTS) assay was established for Nox4 inhibition, utilizing HEK293 cells that stably over-express Nox4 (HEK/Nox4 cells), which generate high levels of H2O2(Cheng G et al, Gene: 2001, p. 131-140). Over 30,000 compounds have been screened and medicinal chemistry efforts have led to the synthesis of numerous analogs and the identification of a chemically distinct series of selective Nox4 inhibitors. […] IC-50 was evaluated for UANox048 (FIG. 1B).
HEK cells stably transfected to overexpress Nox4 were treated with varying concentrations of test compounds, DPI (all-Nox inhibitor positive control), or DMSO (vehicle control) and incubated for 1 h (FIG. 1). (FIG. 1A) H2O2 presence was evaluated by Amplex Red assay. […] Values represent means±SEM; n=4. P values were calculated by student's two-tailed t test. *p<0.05, **p<0.01, *** p<0.001.
Consider `O=C(CN1CCN(S(=O)(=O)N2CCOCC2)CC1)N1CCc2ccccc21` [UANOX026, 1-(indolin-1-yl)-2-(4-(morpholinosulfonyl)piperazin-1-yl)ethan-1-one], for which the remaining activity at 1 µM was 90.6%.

Regarding `Fc1ccccc1CN1CCN(CCN2CCc3ccccc32)CC1` [UANOX067, 1-(2-(4-(2-fluorobenzyl)piperazin-1-yl)ethyl)indoline], the remaining activity at 1 µM came out at 93.9%.

With `CC(C)(CNS(=O)(=O)c1ccc(Oc2ccc(C(F)(F)F)cn2)cc1)N1CCc2ccccc21` [UANOX088], the remaining activity at 1 µM stood at 102%.

On to `O=S(=O)(NCCN1CCc2ccccc21)c1ccc(C(F)(F)F)cc1` [UANOX075, 4-trifluoromethyl-N-(2-(indolin-1-yl)ethyl)benzenesulfonamide], for which the remaining activity at 1 µM was found to be 82.3%.

For `COc1ccc(S(=O)(=O)NCC(C)(C)N2CCc3ccccc32)cc1` [UANOX089, N-(2-(indolin-1-yl)-2-methylpropyl)-4-methoxybenzenesulfonamide], the remaining activity at 1 µM came to 101%.

Consider `CC(CNS(=O)(=O)N1CCCC1)N1CCc2ccccc21` (stereo not drawn) [UANOX008, N-(2-(indolin-1-yl)propyl)pyrrolidine-1-sulfonamide], for which the remaining activity at 1 µM amounted to 98.4%.

For `O=S(=O)(NCCN1CCc2ccccc21)c1ccc(OC(F)(F)F)cc1` [UANOX076, 4-trifluoromethoxy-N-(2-(indolin-1-yl)ethyl)benzenesulfonamide], the remaining activity at 1 µM stood at 83.2%.

As to `O=S(=O)(NCCN1CCc2ccccc21)N1CCCCC1` [UANOX013, N-(2-(indolin-1-yl)ethyl)piperidine-1-sulfonamide], the remaining activity at 1 µM was 101%.

As to `CCN(CC)S(=O)(=O)N1CCN(CCN2CCc3ccccc32)CC1` [UANOX063, N,N-diethyl-4-(2-(indolin-1-yl)ethyl)piperazine-1-sulfonamide], the remaining activity at 1 µM stood at 90.2%.

In the case of `CCN(CC)S(=O)(=O)N1CCN(CC(=O)N2CCc3ccccc32)CC1` [UANOX025, N,N-diethyl-4-(2-(indolin-1-yl)-2-oxoethyl)piperazine-1-sulfonamide], the remaining activity at 1 µM came to 107%.

As for `O=S(=O)(NCCN1CCc2ccccc21)c1ccc(F)c(F)c1` [UANOX081, 3,4-difluoro-N-(2-(indolin-1-yl)ethyl)benzenesulfonamide], the remaining activity at 1 µM came to 88.8%.

Consider `CC(CNS(=O)(=O)N(C)C)N1CCc2ccccc21` (stereo not drawn) [UANOX007, N—(N,N-dimethylaminosulfonyl)-2-(indolin-1-yl)propane-1-amine], for which the remaining activity at 1 µM was 103%.

The same experiment, now with this note: 5 μM final concentration, 1 h, HEK/Nox4 cells; DMSO vehicle = 1.000; n = 3-10; read-out: H2O2 production relative to vehicle control, Mean.
On to `O=C(CN1CCN(S(=O)(=O)N2CCOCC2)CC1)N1CCc2ccccc21` [UANOX026, 1-(indolin-1-yl)-2-(4-(morpholinosulfonyl)piperazin-1-yl)ethan-1-one], for which the remaining activity at 5 µM was 106%.

In the case of `Fc1ccccc1CN1CCN(CCN2CCc3ccccc32)CC1` [UANOX067, 1-(2-(4-(2-fluorobenzyl)piperazin-1-yl)ethyl)indoline], the remaining activity at 5 µM was 91.2%.

`CC(C)(CNS(=O)(=O)c1ccc(Oc2ccc(C(F)(F)F)cn2)cc1)N1CCc2ccccc21` [UANOX088]: the remaining activity at 5 µM stood at 90.3%.

For the molecule `O=S(=O)(NCCN1CCc2ccccc21)c1ccc(C(F)(F)F)cc1` [UANOX075, 4-trifluoromethyl-N-(2-(indolin-1-yl)ethyl)benzenesulfonamide], the remaining activity at 5 µM was 72.1%.

Consider `COc1ccc(S(=O)(=O)NCC(C)(C)N2CCc3ccccc32)cc1` [UANOX089, N-(2-(indolin-1-yl)-2-methylpropyl)-4-methoxybenzenesulfonamide], for which the remaining activity at 5 µM worked out at 83.6%.

Turning to `CC(CNS(=O)(=O)N1CCCC1)N1CCc2ccccc21` (stereo not drawn) [UANOX008, N-(2-(indolin-1-yl)propyl)pyrrolidine-1-sulfonamide], the remaining activity at 5 µM amounted to 77.9%.

For `O=S(=O)(NCCN1CCc2ccccc21)c1ccc(OC(F)(F)F)cc1` [UANOX076, 4-trifluoromethoxy-N-(2-(indolin-1-yl)ethyl)benzenesulfonamide], the remaining activity at 5 µM was found to be 72%.

Take `O=S(=O)(NCCN1CCc2ccccc21)N1CCCCC1` [UANOX013, N-(2-(indolin-1-yl)ethyl)piperidine-1-sulfonamide]: the remaining activity at 5 µM was 92.1%.

Consider `CCN(CC)S(=O)(=O)N1CCN(CCN2CCc3ccccc32)CC1` [UANOX063, N,N-diethyl-4-(2-(indolin-1-yl)ethyl)piperazine-1-sulfonamide], for which the remaining activity at 5 µM was determined as 71.9%.

Consider `CCN(CC)S(=O)(=O)N1CCN(CC(=O)N2CCc3ccccc32)CC1` [UANOX025, N,N-diethyl-4-(2-(indolin-1-yl)-2-oxoethyl)piperazine-1-sulfonamide], for which the remaining activity at 5 µM turned out to be 113%.

For the molecule `O=S(=O)(NCCN1CCc2ccccc21)c1ccc(F)c(F)c1` [UANOX081, 3,4-difluoro-N-(2-(indolin-1-yl)ethyl)benzenesulfonamide], the remaining activity at 5 µM turned out to be 67%.

Take `CC(CNS(=O)(=O)N(C)C)N1CCc2ccccc21` (stereo not drawn) [UANOX007, N—(N,N-dimethylaminosulfonyl)-2-(indolin-1-yl)propane-1-amine]: the remaining activity at 5 µM came out at 91.6%.

The experiment is the same for the next values; noted with them: 10 μM final concentration, 1 h, HEK/Nox4 cells; DMSO vehicle = 1.000; n = 3-10; read-out: H2O2 production relative to vehicle control, Mean.
For the molecule `O=C(CN1CCN(S(=O)(=O)N2CCOCC2)CC1)N1CCc2ccccc21` [UANOX026, 1-(indolin-1-yl)-2-(4-(morpholinosulfonyl)piperazin-1-yl)ethan-1-one], the remaining activity at 10 µM was found to be 101%.

As to `Fc1ccccc1CN1CCN(CCN2CCc3ccccc32)CC1` [UANOX067, 1-(2-(4-(2-fluorobenzyl)piperazin-1-yl)ethyl)indoline], the remaining activity at 10 µM came to 85.1%.

With `CC(C)(CNS(=O)(=O)c1ccc(Oc2ccc(C(F)(F)F)cn2)cc1)N1CCc2ccccc21` [UANOX088], the remaining activity at 10 µM was 79.6%.

Turning to `O=S(=O)(NCCN1CCc2ccccc21)c1ccc(C(F)(F)F)cc1` [UANOX075, 4-trifluoromethyl-N-(2-(indolin-1-yl)ethyl)benzenesulfonamide], the remaining activity at 10 µM worked out at 67.7%.

As for `COc1ccc(S(=O)(=O)NCC(C)(C)N2CCc3ccccc32)cc1` [UANOX089, N-(2-(indolin-1-yl)-2-methylpropyl)-4-methoxybenzenesulfonamide], the remaining activity at 10 µM was determined as 70.1%.

As to `CC(CNS(=O)(=O)N1CCCC1)N1CCc2ccccc21` (stereo not drawn) [UANOX008, N-(2-(indolin-1-yl)propyl)pyrrolidine-1-sulfonamide], the remaining activity at 10 µM stood at 67.8%.

`O=S(=O)(NCCN1CCc2ccccc21)c1ccc(OC(F)(F)F)cc1` [UANOX076, 4-trifluoromethoxy-N-(2-(indolin-1-yl)ethyl)benzenesulfonamide]: the remaining activity at 10 µM amounted to 66.2%.

With `O=S(=O)(NCCN1CCc2ccccc21)N1CCCCC1` [UANOX013, N-(2-(indolin-1-yl)ethyl)piperidine-1-sulfonamide], the remaining activity at 10 µM amounted to 88.1%.

In the case of `CCN(CC)S(=O)(=O)N1CCN(CCN2CCc3ccccc32)CC1` [UANOX063, N,N-diethyl-4-(2-(indolin-1-yl)ethyl)piperazine-1-sulfonamide], the remaining activity at 10 µM is 66.5%.

As to `CCN(CC)S(=O)(=O)N1CCN(CC(=O)N2CCc3ccccc32)CC1` [UANOX025, N,N-diethyl-4-(2-(indolin-1-yl)-2-oxoethyl)piperazine-1-sulfonamide], the remaining activity at 10 µM was determined as 112%.

In the case of `O=S(=O)(NCCN1CCc2ccccc21)c1ccc(F)c(F)c1` [UANOX081, 3,4-difluoro-N-(2-(indolin-1-yl)ethyl)benzenesulfonamide], the remaining activity at 10 µM turned out to be 55.8%.

Turning to `CC(CNS(=O)(=O)N(C)C)N1CCc2ccccc21` (stereo not drawn) [UANOX007, N—(N,N-dimethylaminosulfonyl)-2-(indolin-1-yl)propane-1-amine], the remaining activity at 10 µM was found to be 90.8%.
